According to US4971967A, “Quinolinecarboxylic acid derivatives, antibacterial compositions and use” (Kanebo Ltd, priority 1989, dated 1990):
In brackets after ≈: the same amount, converted by molar mass. Counter-ions that a name gives are not always drawn. Like-named read-outs stand apart in the source and are kept apart here.

Key:
Format in all cases: cell-based
Proteus vulgaris OX-19 = assay: Antibacterial activity (MIC), Proteus vulgaris OX-19; details: OX19; Proteus vulgaris OX-19, Gram -; read-out: Minimum inhibitory concentration (MIC)
Protocol: (§1) The compounds of the present invention (A, C, D, E, F, G, H, I, J, L, O and P) and the known compound (X) as reference were dissolved in 0.1 N aqueous sodium hydroxide to prepare a solution of 5000 μg/ml in concentration. The compounds of the present invention (B, K, M and N) and the known compound (Y) were dissolved in sterilized distilled water to prepare a solution of 5000 μg/ml in concentration. Each solution was diluted with sterilized distilled water to prepare a standard solution with a concentration of each test compound: 1000 μg/ml. The test was carried out by a method as appointed by Japan Society of Chemotherapy [cf. Chemotherapy, 29, 76-79 (1981)(TOKYO)].

[1] = system: Staphylococcus aureus IID 803; assay: Antibacterial activity (MIC), S. aureus IID 803
Protocol: as §1

[2] = system: Salmonella typhimurium IID 971; assay: Antibacterial activity (MIC), Salmonella typhimurium IID 971; details: Salmonella enterica, read-out: Minimum inhibitory concentration (MIC)
Protocol: as §1

[3] = system: Citrobacter freundii NIHJ 10018-68; assay: Antibacterial activity (MIC), Citrobacter freundii NIHJ 10018-68; details: Citrobacter freundii, NIHJ10018, Citrobacter freundii NIHJ 10018-68, Gram -; read-out: Minimum inhibitory concentration (MIC)
Protocol: as §1

Shigella sonnei EW-33 = assay: Antibacterial activity (MIC), Shigella sonnei EW-33; details: Shigella sonnei, EW33, Shigella sonnei EW-33, Gram -; read-out: Minimum inhibitory concentration (MIC)
Protocol: as §1

[4] = system: Proteus mirabilis IFO 3849; assay: Antibacterial activity (MIC), Proteus mirabilis IFO 3849; details: IFO3849; Proteus mirabilis IFO 3849, Gram -; read-out: Minimum inhibitory concentration (MIC)
Protocol: as §1

Enterobacter cloacae 963 = assay: Antibacterial activity (MIC), Enterobacter cloacae 963
Protocol: as §1

[5] = system: Staphylococcus aureus FDA 209P JC-1; assay: Antibacterial activity (MIC), S. aureus FDA 209P JC-1; details: FDA209P, read-out: Minimum inhibitory concentration (MIC)
Protocol: as §1

[6] = system: Serratia marcescens IAM 1184; assay: Antibacterial activity (MIC), Serratia marcescens IAM 1184; details: Serratia marcescens, IAM1184, Serratia marcescens IAM 1184, Gram -; read-out: Minimum inhibitory concentration (MIC)
Protocol: as §1

[7] = system: Klebsiella pneumoniae PCI-602; assay: Antibacterial activity (MIC), Klebsiella pneumoniae PCI-602; details: PCI602; Klebsiella pneumoniae PCI-602, Gram -; read-out: Minimum inhibitory concentration (MIC)
Protocol: as §1

[8] = system: Staphylococcus epidermidis IAM-1296; assay: Antibacterial activity (MIC), S. epidermidis IAM-1296; details: Staphylococcus epidermidis
Protocol: as §1

[9] = system: Acinetobacter calcoaceticus AC 54; assay: Antibacterial activity (MIC), Acinetobacter calcoaceticus AC 54; details: AC54; Acinetobacter calcoaceticus AC 54, Gram -; read-out: Minimum inhibitory concentration (MIC)
Protocol: as §1

Escherichia coli KC-14 = assay: Antibacterial activity (MIC), E. coli KC-14
Protocol: as §1

[10] = system: Escherichia coli NIHJ JC-2; assay: Antibacterial activity (MIC), E. coli NIHJ JC-2
Protocol: as §1

[11] = system: Bacillus subtilis ATCC 6633; assay: Antibacterial activity (MIC), Bacillus subtilis ATCC 6633; details: Bacillus subtilis, ATCC6633, Bacillus subtilis ATCC 6633, Gram +; read-out: Minimum inhibitory concentration (MIC)
Protocol: as §1

[12] = system: Pseudomonas aeruginosa NCTC 10490; assay: Antibacterial activity (MIC), P. aeruginosa NCTC 10490; details: Pseudomonas aeruginosa, NCTC10490, Pseudomonas aeruginosa NCTC 10490, Gram -; read-out: Minimum inhibitory concentration (MIC)
Protocol: as §1

[13] = system: Micrococcus luteus ATCC 9341; assay: Antibacterial activity (MIC), Micrococcus luteus ATCC 9341; details: ATCC9341; Micrococcus luteus ATCC 9341, Gram +; read-out: Minimum inhibitory concentration (MIC)
Protocol: as §1

[14] = system: Pseudomonas aeruginosa E-2; assay: Antibacterial activity (MIC), P. aeruginosa E-2; details: E2; Pseudomonas aeruginosa E-2, Gram -; read-out: Minimum inhibitory concentration (MIC)
Protocol: as §1

[15] = system: Morganella morganii IFO 3848; assay: Antibacterial activity (MIC), Morganella morganii IFO 3848; details: Morganella morganii, IFO3848, Morganella morganii IFO 3848, Gram -; read-out: Minimum inhibitory concentration (MIC)
Protocol: as §1

[16] = system: Pseudomonas aeruginosa IFO 3445; assay: Antibacterial activity (MIC), P. aeruginosa IFO 3445; details: Pseudomonas aeruginosa, IFO3445, Pseudomonas aeruginosa IFO 3445, Gram -; read-out: Minimum inhibitory concentration (MIC)
Protocol: as §1

[17] = system: Streptococcus faecalis IID 682; assay: Antibacterial activity (MIC), Streptococcus faecalis IID 682; details: Enterococcus faecalis
Protocol: as §1

[18] = system: Enterobacter aerogenes ATCC 13048; assay: Antibacterial activity (MIC), Enterobacter aerogenes ATCC 13048; details: Klebsiella aerogenes
Protocol: as §1

[19] = IID803, Staphylococcus aureus IID 803, Gram +, read-out: Minimum inhibitory concentration (MIC)
[20] = Enterobacter cloacae, 963, Enterobacter cloacae 963, Gram -, read-out: Minimum inhibitory concentration (MIC)
[21] = Staphylococcus aureus FDA 209P JC-1, Gram +
[22] = IAM1296, Staphylococcus epidermidis IAM-1296, Gram +, read-out: Minimum inhibitory concentration (MIC)
[23] = KC14, Escherichia coli KC-14, Gram -, read-out: Minimum inhibitory concentration (MIC)
[24] = NIHJJC2, Escherichia coli NIHJ JC-2, Gram -, read-out: Minimum inhibitory concentration (MIC)
[25] = ATCC13048, Enterobacter aerogenes ATCC 13048, Gram -, read-out: Minimum inhibitory concentration (MIC)
[26] = IID682, Streptococcus faecalis IID 682, Gram +, read-out: Minimum inhibitory concentration (MIC)

Row | SMILES | MIC (Proteus vulgaris OX-19) [µg/mL] | MIC [1, 19] [µg/mL] | MIC [2] [µg/mL] | MIC [3] [µg/mL] | MIC (Shigella sonnei EW-33) [µg/mL] | MIC [4] [µg/mL] | MIC (Enterobacter cloacae 963; [20]) [µg/mL] | MIC [5, 21] [µg/mL] | MIC [6] [µg/mL] | MIC [7] [µg/mL] | MIC [8, 22] [µg/mL] | MIC [9] [µg/mL] | MIC (Escherichia coli KC-14; [23]) [µg/mL] | MIC [10, 24] [µg/mL] | MIC [11] [µg/mL] | MIC [12] [µg/mL] | MIC [13] [µg/mL] | MIC [14] [µg/mL] | MIC [15] [µg/mL] | MIC [16] [µg/mL] | other results
1 | CN1Cc2csc3c(C(=O)O)c(=O)c4cc(F)c(N5CCC(O)C5)c1c4n23 (stereo not drawn) [Compound (G), 9,1-(Methylimino)methano-7-fluoro-8-(3-hydroxy-1-pyrrolidinyl)-5-oxo-5H-thiazolo[3,2-a]quinoline-4-carboxylic acid] | 0.0125 (≈ 0.0321 µM) | 0.0125 (≈ 0.0321 µM) | 0.05 (≈ 0.128 µM) | 0.78 (≈ 2 µM) | 0.05 (≈ 0.128 µM) | 0.1 (≈ 0.257 µM) | 0.2 (≈ 0.514 µM) | 0.0125 (≈ 0.0321 µM) | 0.78 (≈ 2 µM) | 0.006 (≈ 0.0154 µM) | 0.0125 (≈ 0.0321 µM) | 0.006 (≈ 0.0154 µM) | 0.1 (≈ 0.257 µM) | 0.1 (≈ 0.257 µM) | 0.006 (≈ 0.0154 µM) | 0.39 (≈ 1 µM) | 0.39 (≈ 1 µM) | 0.78 (≈ 2 µM) | 0.2 (≈ 0.514 µM) | 0.78 (≈ 2 µM) | MIC ([17]; IID682, read-out: Minimum inhibitory concentration (MIC)): 0.05 µg/mL (≈ 0.128 µM); MIC [18, 25]: 0.2 µg/mL (≈ 0.514 µM)
2 | CC1CN(c2c(F)cc3c(=O)c(C(=O)O)c4scc5n4c3c2N(C)C5)CCN1 (stereo not drawn) [Compound (D), 9,1-(Methylimino)methano-7-fluoro-8-(3-methyl-1-piperazinyl)-5-oxo-5H-thiazolo[3,2-a]quinoline-4-carboxylic acid] | 0.006 (≈ 0.0149 µM) | – | 0.05 (≈ 0.124 µM) | 0.39 (≈ 0.969 µM) | 0.05 (≈ 0.124 µM) | 0.2 (≈ 0.497 µM) | – | – | 0.39 (≈ 0.969 µM) | 0.006 (≈ 0.0149 µM) | – | 0.025 (≈ 0.0621 µM) | – | – | 0.006 (≈ 0.0149 µM) | 0.39 (≈ 0.969 µM) | 0.39 (≈ 0.969 µM) | 0.78 (≈ 1.94 µM) | 0.1 (≈ 0.248 µM) | 0.78 (≈ 1.94 µM) | MIC ([1]; Staphylococcus aureus, IID803, read-out: Minimum inhibitory concentration (MIC)): 0.05 µg/mL (≈ 0.124 µM); MIC (Enterobacter cloacae 963; Enterobacter cloacae, 963, read-out: Minimum inhibitory concentration (MIC)): 0.05 µg/mL (≈ 0.124 µM); MIC ([5]; Staphylococcus aureus): 0.05 µg/mL (≈ 0.124 µM); MIC ([8]; IAM1296, read-out: Minimum inhibitory concentration (MIC)): 0.05 µg/mL (≈ 0.124 µM); MIC (Escherichia coli KC-14; Escherichia coli, KC14, read-out: Minimum inhibitory concentration (MIC)): 0.05 µg/mL (≈ 0.124 µM); MIC ([10]; Escherichia coli, NIHJJC2, read-out: Minimum inhibitory concentration (MIC)): 0.05 µg/mL (≈ 0.124 µM); MIC [17, 26]: 0.1 µg/mL (≈ 0.248 µM); MIC ([18]; ATCC13048, read-out: Minimum inhibitory concentration (MIC)): 0.05 µg/mL (≈ 0.124 µM)
3 | CNCC1CCN(c2c(F)cc3c(=O)c(C(=O)O)c4scc5n4c3c2N(C)C5)C1 (stereo not drawn) [Compound (N), 9,1-(Methylimino)methano-7-fluoro-8-(3-methylaminomethyl-1-pyrrolidinyl)-5-oxo-5H-thiazolo[3,2-a]quinoline-4-carboxylic acid hydrochloride] | 0.05 | 0.0125 | – | 0.78 | 0.05 | 0.39 | 0.1 | 0.025 | 0.78 | 0.0125 | 0.05 | 0.05 | 0.05 | 0.1 | 0.025 | 0.39 | 0.2 | 0.78 | 0.2 | 0.78 | MIC ([2]; Salmonella typhimurium IID 971, Gram -): 0.1 µg/mL; MIC [17, 26]: 0.05 µg/mL; MIC [18, 25]: 0.2 µg/mL
